One test concerns the target EGFR (ErbB1) T790M L858R (Homo sapiens (Human), UniProt P00533, L858R/T790M). The experiment in a line: Z'-LYTE kinase inhibition assay, EGFR L858R/T790M. The test is classed as biochemical. The note with it: read-out: % inhibition EGFR L858R/T790M (Compound at 0.0137 μM). As for the experimental part: Inhibitory activities of compounds against BTK, EGFR and EGFR mutants (EGFR L858R, EGFR T790M, EGFR L858R/T790M), FGFR1, FGFR2, JAK2, JAK3 and KDR were measured by Invitrogen using Z'-LYTE® Method as briefly described in the following. Test Compounds are screened in 1% DMSO (final) in the well. For 10 point titrations, 3-fold serial dilutions are conducted from the starting concentration. All ATP Solutions are diluted to a 4× working concentration in Kinase Buffer (50 mM HEPES pH 7.5, 0.01% BRIJ-35, 10 mM MgCl2, 1 mM EGTA). Peptide/Kinase Mixtures are diluted to a 2× working concentration in the appropriate Kinase Buffers as described below. (iv) Peptide/Kinase Mixtures for Measurement of EGFR (ErbB1) T790M L858R: The 2×EGFR (ErbB1) […] mixture is prepared in 50 mM HEPES pH 6.5, 0.01% BRIJ-35, 10 mM MgCl2, 1 mM EGTA, 0.02% NaN3. […] After the 1 hour Kinase Reaction incubation, 5 μL of a 1:64 dilution of Development Reagent B is added. Reaction starts by 30-second shaking of mixture consisting of 2.5 μL 4× test compound, 5 μL 2× kinase reaction mixture and 2.5 μL 4×ATP Solution on Bar-coded Corning, low volume NBS, black 384-well plate (Corning Cat. #3676). Then the mixture is incubated for 60-minute at room temperature for the kinase reaction, followed by addition of 5 μL of a 1:1024 dilution of development reagent A and 30-second plate shake. The mixture is then incubated for another 60-minute at room temperature for development reaction. Finally fluorescence is read by plate reader. To determine IC50 of a compound against EGFR, EGFR mutant and other kinases, a series of concentrations of the compound were tested for the inhibition.
Chain of EGFR (ErbB1) T790M L858R (P00533 25-1210 T790M/L858R): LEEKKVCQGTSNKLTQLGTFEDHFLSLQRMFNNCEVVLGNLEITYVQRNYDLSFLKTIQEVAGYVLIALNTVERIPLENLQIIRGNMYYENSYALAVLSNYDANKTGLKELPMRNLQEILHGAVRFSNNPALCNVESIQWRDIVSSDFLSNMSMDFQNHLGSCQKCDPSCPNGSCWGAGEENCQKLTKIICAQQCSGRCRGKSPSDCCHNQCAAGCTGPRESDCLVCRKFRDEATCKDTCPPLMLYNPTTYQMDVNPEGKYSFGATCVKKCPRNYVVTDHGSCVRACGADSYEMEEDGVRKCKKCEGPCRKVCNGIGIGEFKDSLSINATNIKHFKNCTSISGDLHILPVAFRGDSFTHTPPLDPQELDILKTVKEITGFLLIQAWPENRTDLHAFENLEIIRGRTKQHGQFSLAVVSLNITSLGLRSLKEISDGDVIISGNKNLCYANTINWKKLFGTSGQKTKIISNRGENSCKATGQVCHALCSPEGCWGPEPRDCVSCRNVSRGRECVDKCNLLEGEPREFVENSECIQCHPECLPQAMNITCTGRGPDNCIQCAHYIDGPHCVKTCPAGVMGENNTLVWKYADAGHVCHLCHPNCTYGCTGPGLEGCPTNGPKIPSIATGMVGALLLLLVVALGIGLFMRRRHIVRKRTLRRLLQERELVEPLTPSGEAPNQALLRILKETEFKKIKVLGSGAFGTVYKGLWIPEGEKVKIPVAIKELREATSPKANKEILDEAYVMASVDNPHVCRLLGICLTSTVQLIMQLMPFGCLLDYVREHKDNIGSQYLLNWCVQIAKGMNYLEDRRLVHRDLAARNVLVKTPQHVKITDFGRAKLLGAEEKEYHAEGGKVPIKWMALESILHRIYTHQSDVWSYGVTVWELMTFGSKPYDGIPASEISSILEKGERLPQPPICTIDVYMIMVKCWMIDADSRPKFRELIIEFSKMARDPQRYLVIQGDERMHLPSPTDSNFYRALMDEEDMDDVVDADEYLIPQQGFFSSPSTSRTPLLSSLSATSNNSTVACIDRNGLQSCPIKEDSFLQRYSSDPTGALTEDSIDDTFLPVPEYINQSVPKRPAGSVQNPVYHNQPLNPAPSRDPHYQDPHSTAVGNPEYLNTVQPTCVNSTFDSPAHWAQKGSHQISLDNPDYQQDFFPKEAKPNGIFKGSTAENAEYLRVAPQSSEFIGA
Chain of JAK2 (O60674 whole entry): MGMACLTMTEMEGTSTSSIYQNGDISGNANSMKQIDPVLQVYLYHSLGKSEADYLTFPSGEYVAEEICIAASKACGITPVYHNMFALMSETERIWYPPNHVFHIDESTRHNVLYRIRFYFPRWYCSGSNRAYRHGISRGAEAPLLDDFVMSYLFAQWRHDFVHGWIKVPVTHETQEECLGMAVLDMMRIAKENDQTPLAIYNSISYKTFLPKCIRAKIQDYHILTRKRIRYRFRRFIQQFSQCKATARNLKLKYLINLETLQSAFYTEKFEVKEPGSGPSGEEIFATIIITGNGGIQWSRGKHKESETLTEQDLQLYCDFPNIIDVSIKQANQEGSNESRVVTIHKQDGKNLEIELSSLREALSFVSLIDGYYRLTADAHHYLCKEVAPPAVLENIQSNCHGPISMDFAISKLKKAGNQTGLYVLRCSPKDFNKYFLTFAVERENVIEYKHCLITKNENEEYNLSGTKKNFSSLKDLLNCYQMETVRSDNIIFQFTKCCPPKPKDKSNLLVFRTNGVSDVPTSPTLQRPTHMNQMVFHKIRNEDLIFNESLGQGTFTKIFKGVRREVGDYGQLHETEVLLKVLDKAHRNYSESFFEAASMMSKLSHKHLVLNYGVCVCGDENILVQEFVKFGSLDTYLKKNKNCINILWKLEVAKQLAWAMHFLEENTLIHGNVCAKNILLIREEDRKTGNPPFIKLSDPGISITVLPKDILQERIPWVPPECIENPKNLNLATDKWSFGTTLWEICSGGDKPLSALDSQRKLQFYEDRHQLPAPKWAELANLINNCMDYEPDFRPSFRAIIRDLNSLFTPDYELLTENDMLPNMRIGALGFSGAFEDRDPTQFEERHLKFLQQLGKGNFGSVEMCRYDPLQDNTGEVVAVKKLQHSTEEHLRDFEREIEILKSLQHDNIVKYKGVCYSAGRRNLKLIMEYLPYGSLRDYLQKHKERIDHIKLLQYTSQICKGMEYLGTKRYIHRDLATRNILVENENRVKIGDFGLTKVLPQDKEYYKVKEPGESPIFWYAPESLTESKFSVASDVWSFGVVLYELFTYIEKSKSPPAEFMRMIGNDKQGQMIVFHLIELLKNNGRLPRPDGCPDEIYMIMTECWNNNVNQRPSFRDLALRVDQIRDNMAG
On to `C=CC(=O)Nc1cccc(-c2cccc3cnc(Nc4ccc(NC5CCN(C)CC5F)cc4)nc23)c1` (stereo not shown) [Example C105, N-(3-(2-((4-((3-fluoro-1-methylpiperidin-4-yl)amino)phenyl)amino)quinazolin-8-yl)phenyl)acrylamide], for which the inhibition at 0.0137 µM is greater than 50%.
For the compound `C=CC(=O)Nc1cccc(-c2cccc3cnc(Nc4ccc(OC5CCN(C)CC5F)cc4)nc23)c1` (stereo not shown) [Example C079, N-(3-(2-((4-((3-fluoro-1-methylpiperidin-4-yl)oxy)phenyl)amino)quinazolin-8-yl)phenyl)acrylamide], the inhibition at 0.0137 µM was greater than 50%.
With `C=CC(=O)Nc1cccc(-c2cccc3cnc(Nc4ccc(N5CCN(C)CC5)nc4)nc23)c1` [Example C041, N-(3-(2-((6-(4-methylpiperazin-1-yl)pyridin-3-yl)amino)quinazolin-8-yl)phenyl)acrylamide], the inhibition at 0.0137 µM was greater than 50%.
Turning to `C=CC(=O)Nc1cccc(-c2cccc3cnc(Nc4ccc(N5CCN(C)CC5)c(C(N)=O)c4)nc23)c1` [Example C085, 5-((8-(3-acrylamidophenyl)quinazolin-2-yl)amino)-2-(4-methylpiperazin-1-yl)benzamide], the inhibition at 0.0137 µM is greater than 50%.

Still in this test, the particulars now being: read-out: % inhibition EGFR L858R/T790M (Compound at 1 μM).
As for `C=CC(=O)Nc1cccc(-c2c(C)ccc3cnc(Nc4ccc(N5CCN(C)CC5)cc4)nc23)c1` [Example C034, N-(3-(7-methyl-2-((4-(4-methylpiperazin-1-yl)phenyl)amino)quinazolin-8-yl)phenyl)acrylamide], the inhibition at 1 µM is greater than 50%.

The next test concerns the target JAK2 (Homo sapiens (Human), UniProt O60674). Put plainly: Z'-LYTE kinase inhibition assay, JAK2. Type of test: biochemical. Conditions: read-out: % inhibition JAK2; heading: % inhibition JAK2; compound at 0.041 μM. How it is done: (§1) Inhibitory activities of compounds against BTK, EGFR and EGFR mutants (EGFR L858R, EGFR T790M, EGFR L858R/T790M), FGFR1, FGFR2, JAK2, JAK3 and KDR were measured by Invitrogen using Z′-LYTE® Method as briefly described in the following.
(§2) Test Compounds are screened in 1% DMSO (final) in the well. For 10 point titrations, 3-fold serial dilutions are conducted from the starting concentration. All ATP Solutions are diluted to a 4× working concentration in Kinase Buffer (50 mM HEPES pH 7.5, 0.01% BRIJ-35, 10 mM MgCl2, 1 mM EGTA). Peptide/Kinase Mixtures are diluted to a 2× working concentration in the appropriate Kinase Buffers as described below.
(v) Peptide/Kinase Mixtures for Measurement of JAK2:
The 2×JAK2/Tyr 06 mixture is prepared in 50 mM HEPES pH 7.5, 0.01% BRIJ-35, 10 mM MgCl2, 1 mM EGTA. The final 10 μL Kinase Reaction consists of 0.06-0.81 ng JAK2 and 2 μM Tyr 06 in 50 mM HEPES pH 7.5, 0.01% BRIJ-35, 10 mM MgCl2, 1 mM EGTA. After the 1 hour Kinase Reaction incubation, 5 μL of a 1:64 dilution of Development Reagent A is added.
Reaction starts by 30-second shaking of mixture consisting of 2.5 μL 4× test compound, 5 μL 2× kinase reaction mixture and 2.5 μL 4×ATP Solution on Bar-coded Corning, low volume NBS, black 384-well plate (Corning Cat. #3676). Then the mixture is incubated for 60-minute at room temperature for the kinase reaction, followed by addition of 5 μL of a 1:1024 dilution of development reagent A and 30-second plate shake. The mixture is then incubated for another 60-minute at room temperature for development reaction. Finally fluorescence is read by plate reader.
On to `CC(=O)Nc1cccc(-c2cccc3cnc(Nc4ccc(N5CCN(C)CC5)cc4)nc23)c1` [Example C022, N-(3-(2-((4-(4-methylpiperazin-1-yl)phenyl)amino)quinazolin-8-yl)phenyl)acetamide], for which the inhibition at 0.041 µM was greater than 50%.
Regarding `C=CC(=O)Nc1cccc(-c2cccc3cnc(Nc4ccc(N5CCN(C)CC5)cc4)nc23)c1Cl` [Example C054, N-(2-chloro-3-(2-((4-(4-methylpiperazin-1-yl)phenyl)amino)quinazolin-8-yl)phenyl)acrylamide], the inhibition at 0.041 µM is greater than 50%.

Another test deals with BTK (Homo sapiens (Human), UniProt Q06187). Put plainly: Z'-LYTE kinase inhibition assay, BTK. Type of test: biochemical. The note with it: read-out: % inhibition BTK; heading: % inhibition BTK; compound at 0.041 μM. As for the experimental part: as §1, §2
Chain of BTK (Q06187 whole entry): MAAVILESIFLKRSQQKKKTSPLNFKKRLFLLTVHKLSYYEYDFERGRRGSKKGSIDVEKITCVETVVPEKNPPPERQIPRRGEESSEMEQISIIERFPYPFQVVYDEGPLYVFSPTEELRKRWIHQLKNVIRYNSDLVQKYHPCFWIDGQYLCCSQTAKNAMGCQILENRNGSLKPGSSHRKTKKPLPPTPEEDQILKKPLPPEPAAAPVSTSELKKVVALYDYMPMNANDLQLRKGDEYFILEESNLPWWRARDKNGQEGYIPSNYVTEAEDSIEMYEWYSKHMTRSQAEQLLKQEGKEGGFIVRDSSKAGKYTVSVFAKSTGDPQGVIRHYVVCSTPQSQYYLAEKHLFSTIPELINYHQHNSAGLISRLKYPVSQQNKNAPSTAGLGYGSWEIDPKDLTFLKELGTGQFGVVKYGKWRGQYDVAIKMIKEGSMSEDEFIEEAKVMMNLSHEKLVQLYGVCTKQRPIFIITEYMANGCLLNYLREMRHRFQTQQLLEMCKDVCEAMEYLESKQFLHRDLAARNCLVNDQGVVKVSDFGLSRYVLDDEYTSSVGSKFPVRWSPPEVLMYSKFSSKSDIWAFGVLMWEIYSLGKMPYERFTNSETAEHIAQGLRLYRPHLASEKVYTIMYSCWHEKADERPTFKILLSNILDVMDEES
(v) Peptide/Kinase Mixtures for Measurement of BTK:
The 2×BTK/Tyr 01 mixture is prepared in 50 mM HEPES pH 7.5, 0.01% BRIJ-35, 10 mM MgCl2, 1 mM EGTA.
The mixture is then incubated for another 60-minute at room temperature for development reaction. Finally fluorescence is read by plate reader.
To determine IC50 of a compound against EGFR, EGFR mutant and other kinases, a series of concentrations of the compound were tested for the inhibition. […] The scale utilized in Table 4 is as follows: +++ less than 100 nM, ++ 100-500 nM and + greater than 500 nM.
With `C=CC(=O)Nc1cccc(-c2cccc3cnc(Nc4ccc(N5CCNC(=O)C5)cc4)nc23)c1` [Example C117, N-(3-(2-((4-(3-oxopiperazin-1-yl)phenyl)amino)quinazolin-8-yl)phenyl)acrylamide], the inhibition at 0.041 µM was greater than 50%.
As to `CC(=O)Nc1cccc(-c2cccc3cnc(Nc4ccc(N5CCN(C)CC5)cc4)nc23)c1` [Example C022, N-(3-(2-((4-(4-methylpiperazin-1-yl)phenyl)amino)quinazolin-8-yl)phenyl)acetamide], the inhibition at 0.041 µM is greater than 50%.
`C=CC(=O)Nc1cccc(-c2cccc3cnc(Nc4ccc(O[C@H]5CCN(C)C5)cc4)nc23)c1` [Example C121, (S)-N-(3-(2-((4-((1-methylpyrrolidin-3-yl)oxy)phenyl)amino)quinazolin-8-yl)phenyl)acrylamide]: the inhibition at 0.041 µM is greater than 50%.
As to `C=CC(=O)Nc1cccc(-c2cccc3cnc(Nc4ccc(OC5CCN(C(C)=O)CC5)cc4)nc23)c1` [Example C125, N-(3-(2-((4-((1-acetylpiperidin-4-yl)oxy)phenyl)amino)quinazolin-8-yl)phenyl)acrylamide], the inhibition at 0.041 µM was greater than 50%.
On to `C=CC(=O)Nc1cccc(-c2cccc3cnc(Nc4ccc(NC5CN(C(C)=O)C5)cc4)nc23)c1` [Example C124, N-(3-(2-((4-((1-acetylazetidin-3-yl)amino)phenyl)amino)quinazolin-8-yl)phenyl)acrylamide], for which the inhibition at 0.041 µM is greater than 50%.
Take `C=CC(=O)Nc1cccc(-c2cccc3cnc(Nc4ccc(O[C@H]5CCOC5)cc4)nc23)c1` [Example C113, (S)-N-(3-(2-((4-((tetrahydrofuran-3-yl)oxy)phenyl)amino)quinazolin-8-yl)phenyl)acrylamide]: the inhibition at 0.041 µM is greater than 50%.
As to `C=CC(=O)Nc1cccc(-c2cccc3cnc(Nc4ccc(N5CCN(C)CC5)cc4)nc23)c1Cl` [Example C054, N-(2-chloro-3-(2-((4-(4-methylpiperazin-1-yl)phenyl)amino)quinazolin-8-yl)phenyl)acrylamide], the inhibition at 0.041 µM is greater than 50%.
For the compound `C=CC(=O)Nc1cccc(-c2cccc3cnc(Nc4ccc(O[C@@H]5CCOC5)cc4)nc23)c1` [Example C119, (R)-N-(3-(2-((4-((tetrahydrofuran-3-yl)oxy)phenyl)amino)quinazolin-8-yl)phenyl)acrylamide], the inhibition at 0.041 µM is greater than 50%.
`C=CC(=O)Nc1cccc(-c2cccc3cnc(Nc4ccc(OC5CCN(C)CC5)cc4)nc23)c1` [Example C126, N-(3-(2-((4-((1-methylpiperidin-4-yl)oxy)phenyl)amino)quinazolin-8-yl)phenyl)acrylamide]: the inhibition at 0.041 µM was greater than 50%.
As to `C=CC(=O)Nc1cccc(-c2cccc3cnc(Nc4ccc(OCCN(C)C)cc4)nc23)c1` [Example C110, N-(3-(2-((4-(2-(dimethylamino)ethoxy)phenyl)amino)quinazolin-8-yl)phenyl)acrylamide], the inhibition at 0.041 µM was greater than 50%.
Same read-out and setting: for `C=CC(=O)Nc1cccc(-c2cccc3cnc(Nc4ccc(O[C@@H]5CCN(C)C5)cc4)nc23)c1` [Example C123, (R)-N-(3-(2-((4-((1-methylpyrrolidin-3-yl)oxy)phenyl)amino)quinazolin-8-yl)phenyl)acrylamide] the value was greater than 50%; for `C=CC(=O)Nc1cccc(-c2cccc3cnc(Nc4ccc(N[C@@H]5CCOC5)cc4)nc23)c1` [Example C115, (R)-N-(3-(2-((4-((tetrahydrofuran-3-yl)amino)phenyl)amino)quinazolin-8-yl)phenyl)acrylamide], greater than 50%.
Same read-out and setting: to `Fc1cccc(-c2cccc3cnc(Nc4ccc(N5CCOCC5)cc4)nc23)c1` [Example C009, 8-(3-fluorophenyl)-N-(4-morpholinophenyl)quinazolin-2-amine] belongs less than 50%; to `Clc1ccccc1-c1cccc2cnc(Nc3ccc(N4CCNCC4)cc3)nc12` [Example C026, 8-(2-chlorophenyl)-N-(4-(piperazin-1-yl)phenyl)quinazolin-2-amine], less than 50%; to `C=CC(=O)Nc1cccc(-c2cccc3cnc(Nc4ccc(OC5CN(C(C)=O)C5)cc4)nc23)c1` [Example C122, N-(3-(2-((4-((1-acetylazetidin-3-yl)oxy)phenyl)amino)quinazolin-8-yl)phenyl)acrylamide], greater than 50%.
Same read-out and setting: for `C=CC(=O)Nc1cccc(-c2cccc3cnc(Nc4ccc(NC5CCN(C)CC5)cc4)nc23)c1` [Example C118, N-(3-(2-((4-((1-methylpiperidin-4-yl)amino)phenyl)amino)quinazolin-8-yl)phenyl)acrylamide] the value was greater than 50%; for `C=CC(=O)Nc1cccc(-c2cccc3cnc(Nc4ccc(NC5CCN(C(C)=O)CC5)cc4)nc23)c1` [Example C120, N-(3-(2-((4-((1-acetylpiperidin-4-yl)amino)phenyl)amino)quinazolin-8-yl)phenyl)acrylamide], greater than 50%.
In the case of `C=CC(=O)Nc1cccc(-c2cccc3cnc(Nc4ccc(OCCN5CCC5)cc4)nc23)c1` [Example C109, N-(3-(2-((4-(2-(azetidin-1-yl)ethoxy)phenyl)amino)quinazolin-8-yl)phenyl)acrylamide], the inhibition at 0.041 µM is greater than 50%.

Source of the values: patent publication US11304957B2, “Substituted quinazolines for inhibiting kinase activity” (NeuPharma, Inc., priority 2013, dated 2022).
